Reference: patent publication US20230321462A1, “Method for Improving Olfactory Sensitivity” (Kao Corporation, priority 2019, published 2023)

Assays:
[1] = system: olfactory sensitivity to 3M3SH; assay: Sensory test: odor sensory intensity to 3M3SH with 3M3SH applied to armpit portions of clothes; format: in vivo, human; conditions: fifteen minutes after application of 3M3SH onto the armpit portions, two subjects, FIG. 3
Method: 3M3SH was used as an underarm odor-causing substance. A sensory evaluation sample was prepared by adding one cotton ball (Hakujuji Co., Ltd., No. 10) into a 13.5-mL vial bottle (Maruemu No. 5), and then adding 10 µL of a 3M3SH solution with each diluted concentration thereto. For the 3M3SH solution, mineral oil (Sigma-Aldrich) was used as a solvent, and the concentrations of the solution were set to be 0 µM, 1 µM, 3 µM, 10 µM, 30 µM, 100 µM, and 300 µM.
The sensory test was carried out with two subjects. The subjects wore a commercially available white cloth (material: 65% polyester and 35% cotton). The subjects first smelled the above-described samples in the order from a low concentration sample to a high concentration sample, and odor sensory intensity which the subjects felt was then evaluated. The evaluation was carried out in 9 stages from “0: Not felt” to “4: Unbearably strongly felt,” at intervals of 0.5. Thereafter, the 3M3SH ethanol solution (3 µg/mL) was added in an amount of 10 µL each onto both of the armpit portions of each subject’ clothes (white clothes). Fifteen minutes after addition of this solution, the above-described sensory evaluation was carried out again. […]

OR10G4 = target: T1, OR10G4 (Homo sapiens, UniProt Q8NGN3); assay: Luciferase reporter gene assay, response of OR10G4 to odor substances; format: cell-based; conditions: OR10G4-expressing HEK293 cells, luciferase fold increase, FIG. 1
T1 construct: Flag-Rho tag (N); expressed in transfected cells; host or cells: HEK293
T1 sequence (Q8NGN3 1-311): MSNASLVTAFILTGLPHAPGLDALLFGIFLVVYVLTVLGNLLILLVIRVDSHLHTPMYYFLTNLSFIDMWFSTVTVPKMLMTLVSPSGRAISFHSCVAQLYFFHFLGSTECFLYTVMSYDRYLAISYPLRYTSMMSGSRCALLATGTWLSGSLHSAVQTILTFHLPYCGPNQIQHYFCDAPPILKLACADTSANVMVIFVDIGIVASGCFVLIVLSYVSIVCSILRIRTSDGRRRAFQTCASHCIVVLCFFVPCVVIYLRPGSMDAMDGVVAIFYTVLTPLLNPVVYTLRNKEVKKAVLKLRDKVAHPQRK
Description: Genes encoding the human olfactory receptors OR10G4, OR4S2, OR5P3, OR2W1, and OR1A1 (which are as set forth in SEQ ID NOs: 1, 2, 3, 4, and 5, respectively) were cloned. Each gene was cloned by PCR using human genomic DNA female (G1521: Promega) as a template, based on the sequence information registered in GenBank. Each gene amplified by PCR was incorporated into a pENTR vector (Invitrogen) in accordance with the manual, and by utilizing the NotI/AscI site present on the pENTR vector, it was recombined to the NotI/AscI site produced downstream of a Flag-Rho tag sequence on a pME18S vector. […]
(§1) An olfactory receptor expressed in HEK293 cells conjugated with Gαs existing in the cells to activate adenylate cyclase, so as to increase the amount of cAMP in the cells. For the receptor response measurement in the present study, a luciferase reporter gene assay was applied, and an increase in the intracellular amount of cAMP was monitored as a luminescence value derived from a firefly luciferase gene (fluc2P-CRE-hygro). […]
The medium was removed from the culture produced in the above 3), and an odor substance solution was then added thereto. […] The activity of luciferase was measured using Dual-Glo™ luciferase assay system (Promega) in accordance with the operating manual of the product. […]

olfactory sensitivity = assay: Sensory test: detection threshold concentration of odor substances before and after oral care; format: in vivo, human; conditions: for olfactory sensitivity (detection threshold concentration): 1 hour after oral care vs before oral care
Method: Olfactory sensitivity before and after oral care was evaluated according to a sensory test. The experimental scheme is shown in FIG. 6A, and is also described in detail below. The sensory test was carried out with 14 subjects. On the test day, the subjects were prohibited to eat and drink anything after getting up, and were also prohibited to do oral care including brushing of teeth. The test was started between 8:00 am to 9:30 am. First, exhaled breath was collected from the subjects. Subsequently, the detection threshold concentration of each odor substance was measured according to the sensory test. Thereafter, the subjects ate designated breakfast, and then performed oral care (the brushing of teeth using commercially available toothbrush and dentifrice for 5 minutes, and then, the washing of the mouth using commercially available mouth wash for 30 seconds). At individual time points of 10 minutes and 1 hour after the oral care, exhaled breath was collected from the subjects and the detection threshold concentration of each odor substance was measured.
1 mL of an odor substance solution placed in a vial bottle (Maruemu, No. 2) was used as an odor sample. As such odor substance solutions, a 20-step 2-fold dilution series was prepared regarding each of muscone, indole, and furfuryl mercaptan (highest concentrations: 1000 ppm, 1 mM, and 10 ppb, respectively). Mineral oil (Sigma-Aldrich) was used as a solvent in all cases. As a blank, a vial containing 1 mL of mineral oil was used.
A single test was carried out on two types of odor substance among muscone, indole, and furfuryl mercaptan. […] The test participants smelled the odors contained in the vials and tried to choose the vial containing an odor solution. The test was started with an odor sample having the third low concentration. When the subject’s selection was incorrect or the subject could not choose the vial even once, the same trial was carried out using an odor sample having one step higher concentration. When the subject’ selection was correct two times in a row, the same trial was carried out using an odor sample having one step lower concentration. When the subject’ selection was correct two times in a row using an odor sample with a new concentration, the subject was tested using an odor sample having further one step lower concentration. When the subject could not choose the correct vial even once, the subject was tested using an odor sample having one step higher concentration. Switching from a high concentration to a low concentration, and from a low concentration to a high concentration, was recorded 7 times in total, and the mean value of the concentrations measured 4 times in the second half was defined as a detection threshold concentration. The detection threshold concentrations of each odor substance before and after oral care were compared with each other according to the Wilcoxon signed-rank test, and the p value was calculated. The statistical analysis was carried out using R Software (Ver.3.6.0).

OR4S2 = target: T2, OR4S2 (Homo sapiens, UniProt Q8NH73); assay: Luciferase reporter gene assay, response of OR4S2 to odor substances; format: cell-based; conditions: OR4S2-expressing HEK293 cells, luciferase fold increase, FIG. 4, 5, 9
T2 construct: Flag-Rho tag (N); expressed in transfected cells; host or cells: HEK293
T2 sequence (Q8NH73 1-311): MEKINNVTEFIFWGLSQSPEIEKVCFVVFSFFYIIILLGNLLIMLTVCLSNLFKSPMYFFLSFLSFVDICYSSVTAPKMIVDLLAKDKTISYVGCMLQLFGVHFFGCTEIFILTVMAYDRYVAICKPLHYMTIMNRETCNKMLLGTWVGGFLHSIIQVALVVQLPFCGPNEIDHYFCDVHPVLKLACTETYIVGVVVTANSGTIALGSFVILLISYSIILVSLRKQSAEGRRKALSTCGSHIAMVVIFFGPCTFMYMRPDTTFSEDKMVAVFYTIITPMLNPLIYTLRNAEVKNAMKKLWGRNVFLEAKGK
Description: Genes encoding the human olfactory receptors OR10G4, OR4S2, OR5P3, OR2W1, and OR1A1 (which are as set forth in SEQ ID NOs: 1, 2, 3, 4, and 5, respectively) were cloned. Each gene was cloned by PCR using human genomic DNA female (G1521: Promega) as a template, based on the sequence information registered in GenBank. Each gene amplified by PCR was incorporated into a pENTR vector (Invitrogen) in accordance with the manual, and by utilizing the NotI/AscI site present on the pENTR vector, it was recombined to the NotI/AscI site produced downstream of a Flag-Rho tag sequence on a pME18S vector.
HEK293 cells in which any one of the above-described human olfactory receptors was allowed to express, were produced. A reaction solution having the composition shown in Table 2 was prepared, and was then left to stand in a clean bench for 15 minutes. The resultant was added into each well of a 96-well plate (BD). […]
as §1
The medium was removed from the culture produced in the above 3), and an odor substance solution was then added thereto. […] The activity of luciferase was measured using Dual-Glo™ luciferase assay system (Promega) in accordance with the operating manual of the product. The value fLuc/hRluc was calculated by dividing the value of luminescence derived from firefly luciferase by the value of luminescence derived from Renilla luciferase. A fold increase was calculated by dividing the value fLuc/hRluc induced by cells stimulated with an odor substance, by the value fLuc/hRluc induced by cells not stimulated with an odor substance, and the obtained value was used as an indicator of response intensity. […]

OR5AN1 = target: T3, OR5AN1 (Homo sapiens, UniProt Q8NGI8); conditions: Patent Literature 1; cited from earlier work
T3 sequence (Q8NGI8 1-311): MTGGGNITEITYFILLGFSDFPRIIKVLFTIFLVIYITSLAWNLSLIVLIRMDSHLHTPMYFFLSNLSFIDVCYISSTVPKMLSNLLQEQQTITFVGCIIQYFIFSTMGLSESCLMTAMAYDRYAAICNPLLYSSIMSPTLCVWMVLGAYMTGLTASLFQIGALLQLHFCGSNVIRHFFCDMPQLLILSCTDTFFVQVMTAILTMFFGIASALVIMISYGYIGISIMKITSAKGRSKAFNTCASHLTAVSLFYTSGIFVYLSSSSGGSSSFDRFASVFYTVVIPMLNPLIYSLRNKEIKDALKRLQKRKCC

SMILES | response of OR10G4 to odor substances (OR10G4) | olfactory sensitivity (detection threshold concentration) (olfactory sensitivity; FIG. 7A) | response of OR4S2 to odor substances (OR4S2) | further results
CCCC(C)(S)CCO (stereo not drawn) [3M3SH, 3-Methyl-3-sulfanylhexan-1-ol] | – | – | – | odor intensity of 3M3SH felt from the sample [1]: reduced
CCOc1cc(C=O)ccc1O [ethyl vanillin, Ethyl vanillin] | activate OR10G4 | – | – | –
SCc1ccco1 [furfuryl mercaptan, Furfuryl mercaptan] | – | statistically significantly improved | is activated by | –
COc1ccccc1O [guaiacol, Guaiacol] | activate OR10G4 | – | – | –
c1ccc2[nH]ccc2c1 [indole, Indole] | – | statistically significantly improved | activate OR4S2 | detection threshold concentration relative to before oral care (olfactory sensitivity; 10 minutes after the oral care, FIG. 7B): 1/16; detection threshold concentration relative to before oral care (olfactory sensitivity; 1 hour after the oral care, on average, FIG. 7A): ⅛
C[C@@H]1CCCCCCCCCCCCC(=O)C1 [muscone, Muscone] | – | no statistically significant difference | is not activated by | recognition by OR5AN1 (OR5AN1): recognized, mainly mediated by OR5AN1
